Patent US5234903A, “Chemically modified hemoglobin as an effective, stable non-immunogenic red blood cell substitute” (Enzon, Inc., priority 1990, dated 1993)
Like-named read-outs stand apart in the source and are kept apart here. Values belong to the compound of their own block, whether it stands above or below them.

Tests used:
[1] = Oxygen binding: P50 (partial pressure of oxygen at 50% saturation) and Hill coefficient
Description: Hemoglobin constitutes about 90% of the total protein in red blood cells. 100 ml of whole blood is capable of absorbing approximately 21 ml of gaseous oxygen due to the binding ability of hemoglobin. Equally important to the binding of oxygen, hemoglobin is also efficient in releasing the bound oxygen to tissues. The ability of hemoglobin to bind and release oxygen is often quantitatively expressed as the P50, the partial pressure of oxygen which results in fifty percent saturation of hemoglobin.
The resulting modified hemoglobin may then be tested to determine its P50 value so as to confirm that a clinically useful P50 has been achieved. Methods of P50 measurement include standard methods of analysis, such as, for example, methods utilizing the Hemox-Analyzer (TCS Medical Products Co., Huntingdon Valley, Pa.).
Following reduction, the hemoglobin may be reacted with an activated polyalkylene oxide under conditions which maintain the structural integrity of the oxygen binding site. In preferred embodiments of the invention, such conditions consist of a high anion concentration; in a specific embodiment this anion is chloride ion. In preferred embodiments, the chloride ion concentration is at least about 1.0M. […] According to the invention, the activated polyalkylene oxide may have one or more than one functional groups. The degree of modification for each preparation referred to in Table I is approximately 20 percent. This percent modification corresponds to about […] PEG molecules per each molecule of hemoglobin. The percent modification may be calculated according to the number of lysines modified by PEG and is based on a total of 48 surface lysines in bovine hemoglobin. The number may be determined by trinitrobenzene sulfonic acid (TNBS) assay (Habeef et al., 1966, Analyt. Biochem. 14:328-336).
(§1) The polyalkylene oxide modified hemoglobin may then be chemically characterized using methods known in the art. For example, the oxygen dissociation curve may be determined using standard techniques (for example, Imai et al., 1970, Biochim. Biophys. Acta 200: 189-196) allowing calculation of the P50 value. Additional parameters which would be desirable to measure include the methemoglobin content, the viscosity, the osmolality, the pH, and the Hill constant; the effects of changes in pH on the oxygen saturation curve may be determined as described in Bartels (1971, Blood oxygen dissociation curves: Mammals. in "Respiration and Circulation", Altman and Dittmer, Eds., Federation of American Societies for Experimental Biology, Bethesda).
Purification was carried out using a hollow-fiber ultrafiltration device with M.W. cutoff of 50 kD that is commercially available from American Fluid, Richboro, Pa. The advantage of this device relative to conventional tangential flat ultrafiltration membranes is its easy handling of viscous protein solutions such as the 6% PEG-Hb solution. Following purification, the P50 of the PEG-Hb was determined by a Hemox-Analyzer (TCS Medical Products Co., Huntington Valley, Pa.).

bovine hemoglobin = experiment: Reducing agents in bovine hemoglobin solution (deoxy Hb, Met Hb, free iron); assay type: biochemical; conditions: for Met Hb / deoxy Hb / Free Iron: 30 mM agent, 5% bovine hemoglobin, pH 7.4, 4° C., inert atmosphere, 20 hours
Description: 30 mM of each reducing agent tested, including cysteine, glutathione, N-acetyl cysteine, N-acetyl methionine and sodium ascorbate, was added to 5% bovine hemoglobin solution containing 0.lM Na phosphate, 0.1M NaHCO3 and 0.1M NaCl, with pH=7.4 and at 4° C., under an inert atmosphere. 20 hours later, the deoxyhemoglobin (deoxy Hb), Met Hb and free iron concentrations were determined. Met Hb and deoxy Hb concentrations were measured using an OSM3 Hemoximeter (Radiometer) and free iron was determined by the ferrozine assay method (Carter, 1971, Analyt. Biochem. 40:450-458).

[2] = Viscosity and colloid osmotic pressure of PEG-Hb solutions; assay type: physicochemical; conditions: for colloid osmotic pressure: 6 percent (g/dl) product
Source text: as §1

[3] = Half-life and intravascular Met-Hb in rats after 70 percent exchange transfusion; assay type: in vivo; conditions: rat, in vivo
Source text: Blood circulating time of polyalkylene oxide-modified Hb may, for example, and not by way of limitation, be evaluated by monitoring the concentration of hemoglobin in the plasma fraction (at 540 nm) of blood samples sequentially collected following exchange transfusion with modified Hb. Hemoglobin disappearance may be plotted as a function of time.

[4] = Methemoglobin content of PEG-Hb preparations; assay type: physicochemical; conditions: in preparation
Source text: as §1

rats = experiment: Blood pressure, heart rate and breathing in rats after 70 percent exchange transfusion; assay type: in vivo; conditions: 70% exchange transfusion
Source text: Acute toxicity studies may be performed in any suitable experimental animal. Preferably, a range of exposures may be tested; for example, by evaluating animals that have received a 50 or 70 percent exchange transfusion as compared to animals that have received a 100 percent exchange transfusion. Vital signs and visual observations should be recorded, and the animals may be sacrificed after a period of time estimated to correspond to one half-life of the hemoglobin formulation being tested. Histological evaluation using standard techniques may be used to determine the presence or absence of toxic effects on tissues including lung, kidney, liver, or brain.
The results of in vivo studies, in which rats were given a 70 percent exchange transfusion of hemoglobin prepared according to Examples I-V or control (native bovine hemoglobin) are shown in Table V (bracketed numbers are values obtained in rats that were not transfused). Note that the breathing rate decreased slightly, and the blood pressure increased by at most about 30-35 percent relative to control, showing a good physiologic response to the exchange transfusion.

[5] = 30 mM sodium bisulfite, 59% deoxyHb before PEGylation
[6] = 50 mM sodium bisulfite, 63% deoxyHb before PEGylation
[7] = 100 mM sodium bisulfite, 75% deoxyHb before PEGylation
[8] = 175 mM sodium bisulfite, 95-100% deoxyHb before PEGylation
[9] = 0% deoxyHb before PEGylation, SC-PEG
[10] = 20% deoxyHb before PEGylation, SC-PEG
[11] = 35% deoxyHb before PEGylation, SC-PEG
[12] = 50% deoxyHb before PEGylation, SC-PEG
[13] = 70% deoxyHb before PEGylation, SC-PEG
[14] = 90% deoxyHb before PEGylation, SC-PEG
[15] = 95% deoxyHb before PEGylation, SC-PEG
[16] = degree of modification 3%, 0.15M [Cl-]
[17] = degree of modification 6%, 0.15M [Cl-]
[18] = 0% deoxyHb before PEGylation, BSC-PEG
[19] = 25% deoxyHb before PEGylation, BSC-PEG
[20] = 45% deoxyHb before PEGylation, BSC-PEG
[21] = 61% deoxyHb before PEGylation, BSC-PEG
[22] = 76% deoxyHb before PEGylation, BSC-PEG
[23] = 93% deoxyHb before PEGylation, BSC-PEG
[24] = [Cl-] of reaction solution 0.1 M, degree of modification approximately 20 percent
[25] = [Cl-] of reaction solution 0.5 M, degree of modification approximately 20 percent
[26] = [Cl-] of reaction solution 1.0 M, degree of modification approximately 20 percent
[27] = [Cl-] of reaction solution 1.5 M, degree of modification approximately 20 percent
[28] = [Cl-] of reaction solution 2.0 M, degree of modification approximately 20 percent
[29] = native, unmodified (footnote of Table VII)

Hill Coefficient [1, 5]: 1.8
P50 of PEG-Hb [1, 5]: 18.5 mmHg
Hill Coefficient [1, 6]: 1.8
P50 of PEG-Hb [1, 6]: 19.0 mmHg
Hill Coefficient [1, 7]: 2.2
P50 of PEG-Hb [1, 7]: 28.0 mmHg
Hill Coefficient [1, 8]: 2.0
P50 of PEG-Hb [1, 8]: 24.0 mmHg
Compound: Example IX: bovine hemoglobin deoxygenated with sodium bisulfite, then modified using monofunctionally activated SC-PEG

Compound: CC(=O)N[C@@H](CS)C(=O)O [N-acetyl cysteine]
Met Hb (bovine hemoglobin): 18.8%
deoxy Hb (bovine hemoglobin): 0%

Hill coeff. [1, 9]: 1.7
P50 [1, 9]: 18 mmHg
Hill coeff. [1, 10]: 1.7
P50 [1, 10]: 18 mmHg
Hill coeff. [1, 11]: 1.7
P50 [1, 11]: 18 mmHg
Hill coeff. [1, 12]: 2.0
P50 [1, 12]: 24 mmHg
Hill coeff. [1, 13]: 2.2
P50 [1, 13]: 28 mmHg
Hill coeff. [1, 14]: 2.0
P50 [1, 14]: 22 mmHg
Hill coeff. [1, 15]: 2.0
P50 [1, 15]: 22 mmHg
Compound: Example VIII: bovine hemoglobin partially deoxygenated by gas exchange, modified with SC-PEG (M.W. 5141), SC-PEG:Hb 12:1
colloid osmotic pressure [2]: 24 mmHg
Viscosity ([2]; 6 percent (g/dl), 37° C.): 4.2 cp

Hill coeff. ([1]; Examples I-V and control): 2.58
Compound: Example I: bovine hemoglobin reduced with cysteine, modified with SC-PEG (MW 5000) at a molar ratio of 20:1
Formation of Met-bHb in rat intravasculature [3]: substantially lower than that of unmodified hemoglobin
Met-Hb at Half-life [3]: 29.3%
Half-life ([3]; iv): 8.9 h
MetHb [4]: 6%
Breathing (rats): 117 min⁻¹
Heart Rate (rats): 392 min⁻¹
Mean Arterial Press. (rats): 102 mmHg
Endotoxin (Endotoxin (LAL test)): < .1 EU
endotoxins (Endotoxin (LAL test)): free of endotoxins
Osmotic Press. [2]: 24 mmHg
Viscosity [2]: 3.6 cp
colloid osmolality [2]: 24 mm Hg

Compound: N[C@@H](CS)C(=O)O [Cysteine, cysteine]
Free Iron (bovine hemoglobin): 4.26 µg/dL
Met Hb (bovine hemoglobin): 0.8%
deoxy Hb (bovine hemoglobin): 97.6%
deoxyhemoglobin level, ranking among agents (bovine hemoglobin; in words): highest levels of deoxyhemoglobin
methemoglobin and free iron level, ranking among agents (bovine hemoglobin; in words): lowest levels of methemoglobin and free iron

Compound: CSCC[C@H](NC(C)=O)C(=O)O [N-acetyl methionine]
Met Hb (bovine hemoglobin): 19.6%
deoxy Hb (bovine hemoglobin): 0%

P50 [1, 16]: 34 mm Hg
P50 ([1]; degree of modification 4.5%, 0.15M [Cl-]): 34 mm Hg
P50 [1, 17]: 32.5 mm Hg
Compound: BSC-PEG(4600)-bHb: bovine hemoglobin modified with bifunctional BSC-PEG of molecular weight 4600

Hill coeff. [1, 18]: 1.8
P50 [1, 18]: 20 mmHg
Hill coeff. [1, 19]: 1.9
P50 [1, 19]: 22 mmHg
Hill coeff. [1, 20]: 2.0
P50 [1, 20]: 25 mmHg
Hill coeff. [1, 21]: 2.3
P50 [1, 21]: 30 mmHg
Hill coeff. [1, 22]: 2.3
P50 [1, 22]: 31 mmHg
Hill coeff. [1, 23]: 2.0
P50 [1, 23]: 26 mmHg
Compound: Example X: bovine hemoglobin deoxygenated by gas exchange, modified with BSC-PEG (M.W. 5000), BSC-PEG:Hb 2.5:1, crosslinked
colloid osmotic pressure [2]: 20 mmHg
Viscosity ([2]; 6 percent (g/dl), 37° C.): 4.5 cp

Compound: O=C1O[C@H]([C@@H](O)CO)C([O-])=C1O.[Na+] [Na-Ascorbate, sodium ascorbate]
Free Iron (bovine hemoglobin): 233.7 µg/dL
Met Hb (bovine hemoglobin): 4.1%
deoxy Hb (bovine hemoglobin): 96.7%

P50 [1, 24]: 22 mm Hg
P50 [1, 25]: 24 mm Hg
P50 [1, 26]: 29 mm Hg
P50 [1, 27]: 30 mm Hg
P50 [1, 28]: 30 mm Hg
P50 ([1]; reacted in 0.1M [Cl-], degree of modification 5%): 24 mm Hg
P50 ([1]; reacted in 0.1M [Cl-], degree of modification 10%): 22 mm Hg
P50 ([1]; reacted in 0.1M [Cl-], degree of modification 20%): 22 mm Hg
P50 ([1]; reacted in 0.5M [Cl-], degree of modification 5%): 28 mm Hg
P50 ([1]; reacted in 0.5M [Cl-], degree of modification 10%): 24 mm Hg
P50 ([1]; reacted in 0.5M [Cl-], degree of modification 20%): 24 mm Hg
P50 ([1]; reacted in 1.0M [Cl-], degree of modification 5%): 30 mm Hg
P50 ([1]; reacted in 1.0M [Cl-], degree of modification 10%): 29 mm Hg
P50 ([1]; reacted in 1.0M [Cl-], degree of modification 20%): 29 mm Hg
Compound: SC-PEG(5000)-bHb: bovine hemoglobin modified with monofunctional SC-PEG of molecular weight 5000

Compound: Bifunctional PEG-modified bHb: bovine hemoglobin reacted with BSC-PEG
P50 vs monofunctional PEG-modified bHb ([1]; in words): higher P50 than monofunctional PEG-modified bHb

P50 [1, 16]: 38.5 mm Hg
P50 [1, 17]: 36.5 mm Hg
P50 ([1]; degree of modification 7.3%, 0.15M [Cl-]): 36.5 mm Hg
Compound: BSC-PEG(6000)-bHb: bovine hemoglobin modified with bifunctional BSC-PEG of molecular weight 6000

P50 [1, 24]: 24 mm Hg
P50 [1, 25]: 30 mm Hg
P50 [1, 26]: 32 mm Hg
P50 [1, 27]: 31 mm Hg
P50 [1, 28]: 32 mm Hg
Compound: SC-PEG(2000)-bHb: bovine hemoglobin modified with monofunctional SC-PEG of molecular weight 2000

P50 [1, 24]: 24 mm Hg
P50 [1, 25]: 28 mm Hg
P50 [1, 26]: 30 mm Hg
P50 [1, 27]: 30 mm Hg
P50 [1, 28]: 30 mm Hg
Compound: SC-PEG(4000)-bHb: bovine hemoglobin modified with monofunctional SC-PEG of molecular weight 4000

Compound: N[C@@H](CCC(=O)N[C@@H](CS)C(=O)NCC(=O)O)C(=O)O [GSH, reduced glutathione]
Met Hb (bovine hemoglobin): 11.9%
deoxy Hb (bovine hemoglobin): 9.7%

Hill Coefficient [1, 29]: 2.3
P50 [1, 29]: 28 mmHg
Compound: native stromafree bHb: native stromafree bHb from Biopure, Boston, MA [reference compound]
